Laboratory results reported in patent US11155567B2, “Sting agonist compounds and methods of use” (Mersana Therapeutics, Inc., priority 2019, dated 2021).
pEC50: −log10 of the molar value.

biological target: T1, Human STING (Homo sapiens, UniProt Q86WV6, G230A/H232R/R293Q/R71H); test: Activation of human STING signaling in permeabilized THP1 cells, IRF3 induction; type: cell-based; conditions: THP1-Dual cells permeabilized with digitonin buffer 30 minutes on ice, then 24 h in RPMI media
T1 construct: host or cells: THP1-Dual cells, digitonin-permeabilized
T1 sequence (Q86WV6 whole entry R71H/G230A/H232R/R293Q): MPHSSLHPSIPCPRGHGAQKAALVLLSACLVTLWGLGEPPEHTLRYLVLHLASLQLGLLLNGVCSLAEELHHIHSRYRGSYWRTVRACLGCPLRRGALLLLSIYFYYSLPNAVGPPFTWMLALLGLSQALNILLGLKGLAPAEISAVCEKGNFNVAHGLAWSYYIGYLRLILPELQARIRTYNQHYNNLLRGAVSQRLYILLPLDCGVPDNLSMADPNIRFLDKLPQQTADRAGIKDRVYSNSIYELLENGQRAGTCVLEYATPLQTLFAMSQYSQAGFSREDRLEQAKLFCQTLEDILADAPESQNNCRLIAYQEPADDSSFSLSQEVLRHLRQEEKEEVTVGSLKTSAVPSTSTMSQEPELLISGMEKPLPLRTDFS
Protocol: To evaluate IRF3 reporter levels, cell culture supernatant (20 μl) from each incubated sample was added to QUANTI-Luc™ assay solution (Invivogen, 50 μl), and the luminescence was measured with a SpectraMax M3 spectrophotometer (Molecular Devices).
4×10^5 THP1-Dual™ cells (NF-κB-SEAP and IRF-Lucia luciferase Reporter Monocytes, Invivogen) were incubated with test Compounds in a 5-fold titration steps from […] in permeabilized buffer (50 mM HEPES pH 7.0, 100 mM KCl, 3 mM MgCl2, 85 mM sucrose, 0.2% BSA, 1 mM ATP, 0.1 mM GTP, 0.1 mM TTP, 1 μg/ml digitonin) for 30 minutes on ice. Cells were then washed and incubated in a fresh RPMI media with 10% FBS at 37° C. with 5% CO2 for 24 h. Cell culture supernatants from each sample were collected and NFkB and IRF3 were evaluated as above. Table 3 provides the results for IRF3 induction (“A” means <1 μM; “B” means ≥1 μM and <50 μM; “C” means ≥50 μM).

pEC50 | SMILES
≤ 4.30 | CCc1nc(C)oc1C(=O)/N=c1\sc2cc(C(N)=O)cc(OC)c2n1C/C=C/Cn1c(NC(=O)c2sc(C)nc2CC)nc2cc(C(N)=O)cc(OCCCO)c21 [compound 70]
≤ 4.30 | CCc1nc(C)oc1C(=O)Nc1nc2cc(C(N)=O)cc(OC)c2n1C/C=C/Cn1c(NC(=O)c2cnc(C)o2)nc2cc(C(N)=O)cc(OCCCO)c21 [Compound 136]
> 6.00 | CCc1nc(C)oc1C(=O)Nc1nc2cc(C(N)=O)cc(OC)c2n1C/C=C/Cn1c(NC(=O)c2sc(C)nc2CC)nc2cc(C(N)=O)cc(OCCCC(=O)O)c21 [Compound 149]
> 6.00 | CCc1nc(C)oc1C(=O)Nc1nc2cc(C(N)=O)cnc2n1C/C=C/Cn1c(NC(=O)c2sc(C)nc2CC)nc2cc(C(N)=O)cc(OCCCO)c21 [Compound 143]
> 6.00 | CCc1nc(C)sc1C(=O)Nc1nc2cc(C(N)=O)cc(OCCCO)c2n1C/C=C/Cn1c(NC(=O)c2cc(C)nn2CC)nc2cc(C(N)=O)cc(OC)c21 [compound 38]
4.30 to 6.00 | CCc1nc(C)oc1C(=O)Nc1nc2cc(N)cc(OC)c2n1C/C=C/Cn1c(NC(=O)c2oc(C)nc2CC)nc2cc(C(N)=O)cc(OCCCO)c21 [Compound 135]
> 6.00 | CCc1nc(C)oc1C(=O)Nc1nc2cc(C(N)=O)cc(OCCCO)c2n1C/C=C/Cn1c(NC(=O)c2cc(C)nn2CC)nc2cc(C(N)=O)ccc21 [compound 51]
> 6.00 | CCn1nc(C)cc1C(=O)Nc1nc2cc(C(N)=O)cnc2n1C/C=C/Cn1c(NC(=O)c2cc(C)nn2CC)nc2cc(C(N)=O)cc(OCCCC(=O)O)c21 [Compound 112]
4.30 to 6.00 | CCc1nc(C)oc1C(=O)Nc1nc2cc(CNC(C)=O)cc(OC)c2n1C/C=C/Cn1c(NC(=O)c2oc(C)nc2CC)nc2cc(C(N)=O)cc(OCCCO)c21 [Compound 130]
≤ 4.30 | CCc1nc(C)oc1C(=O)Nc1nc2cc(C(N)=O)cc(O)c2n1C/C=C/Cn1c(NC(=O)c2oc(C)nc2CC)nc2cc(C(N)=O)cc(O)c21 [Compound 139]
4.30 to 6.00 | CCn1nc(C)cc1C(=O)Nc1nc2cc(C(N)=O)cnc2n1C/C=C/Cn1c(NC(=O)c2oc(C)nc2C)nc2cc(C(N)=O)cc(OCCCO)c21 [Compound 113]
> 6.00 | CCn1nc(C)cc1C(=O)Nc1nc2cc(CN(C)C)cnc2n1C/C=C/Cn1c(NC(=O)c2cc(C)nn2CC)nc2cc(C(N)=O)cc(OCCCO)c21 [Compound 125]
> 6.00 | CCn1nc(C)cc1C(=O)Nc1nc2cc(C(=O)OC)cnc2n1C/C=C/Cn1c(NC(=O)c2cc(C)nn2CC)nc2cc(C(N)=O)cc(OCCCO)c21 [Compound 123]
> 6.00 | CCc1nc(C)oc1C(=O)Nc1nc2cc(C(N)=O)cc(OCCCO)c2n1C/C=C/Cn1/c(=N/C(=O)c2sc(C)nc2CC)sc2cc(C(N)=O)cc(OC)c21 [compound 76]
> 6.00 | CCn1nc(C)cc1C(=O)Nc1nc2cc(C(N)=O)cnc2n1C/C=C/Cn1c(NC(=O)c2cc(C)nn2CC)nc2cc(C(N)=O)cc(OCCCO)c21 [compound 94]
> 6.00 | CCc1nc(C)oc1C(=O)/N=c1\sc2cc(C(N)=O)cnc2n1C/C=C/Cn1c(NC(=O)c2sc(C)nc2CC)nc2cc(C(N)=O)cc(OCCCO)c21 [Compound 142]
4.30 to 6.00 | CCn1nc(C)cc1C(=O)Nc1nc2cccnc2n1C/C=C/Cn1c(NC(=O)c2cc(C)nn2CC)nc2cc(C(N)=O)cc(OCCCO)c21 [Compound 114]
≤ 4.30 | CCc1nc(C)oc1C(=O)Nc1nc2cc(C(N)=O)cc(OC)c2n1C/C=C/Cn1c(NC(=O)c2cnco2)nc2cc(C(N)=O)cc(OCCCO)c21 [Compound 138]
> 6.00 | CCc1nc(C)oc1C(=O)Nc1nc2cc(C(N)=O)cc(OCCCO)c2n1C/C=C/Cn1c(NC(=O)c2sc(C)nc2CC)nc2cc(C(N)=O)cc(OC)c21 [compound 37]

pEC50 | SMILES
≤ 4.30 | CCc1nc(C)sc1C(=O)/N=c1\sc2cc(C(N)=O)cnc2n1C/C=C/Cn1c(NC(=O)c2sc(C)nc2CC)nc2cc(C(N)=O)cc(OCCCO)c21 [Compound 145]
> 6.00 | CCc1nc(C)oc1C(=O)Nc1nc2cc(C(N)=O)cnc2n1C/C=C/Cn1c(NC(=O)c2sc(C)nc2CC)nc2cc(C(N)=O)cc(OCCCC(=O)O)c21 [Compound 151]
4.30 to 6.00 | CCn1nc(C)cc1C(=O)/N=c1\sc2cc(C(N)=O)cc(OCCCO)c2n1C/C=C/Cn1c(NC(=O)c2cc(C)nn2CC)nc2cc(C(N)=O)cnc21 [Compound 147]
> 6.00 | Cc1cc(C(=O)Nc2nc3cc(C(N)=O)ccc3n2C/C=C/Cn2c(NC(=O)c3cc(C)on3)nc3cc(C(N)=O)cc(OCCCO)c32)no1 [compound 26]
> 6.00 | CCn1nc(C)cc1C(=O)/N=c1\sc2cc(C(=O)OC)cc(OC)c2n1C/C=C/Cn1c(NC(=O)c2cc(C)nn2CC)nc2cc(C(N)=O)cc(OCCCO)c21 [Compound 115]
> 6.00 | CCc1nc(C)sc1C(=O)Nc1nc2cc(C(N)=O)cc(OC)c2n1C/C=C/Cn1c(NC(=O)c2sc(C)nc2CC)nc2cc(C(N)=O)cc(OCCCO)c21 [compound 10]
> 6.00 | CCc1nc(C)oc1C(=O)Nc1nc2cc(C(N)=O)cc(OC)c2n1C/C=C/Cn1c(NC(=O)c2oc(C)nc2CC)nc2cc(C(N)=O)cc(OCCCC(=O)O)c21 [compound 19]
> 6.00 | CCc1nc(C)oc1C(=O)Nc1nc2cc(CN)cc(OC)c2n1C/C=C/Cn1c(NC(=O)c2oc(C)nc2CC)nc2cc(C(N)=O)cc(OCCCO)c21 [Compound 128]
≤ 4.30 | COc1cc(C(N)=O)cc2nc(NC(=O)c3nc(C)oc3C)n(C/C=C/Cn3c(NC(=O)c4nc(C)oc4C)nc4cc(C(N)=O)cc(OCCCO)c43)c12 [compound 13]
≤ 4.30 | COc1cc(C(N)=O)cc2nc(NC(=O)c3cnc(C(F)(F)F)s3)n(C/C=C/Cn3c(NC(=O)c4cnc(C(F)(F)F)s4)nc4cc(C(N)=O)cc(OCCCO)c43)c12 [compound 17]
4.30 to 6.00 | CCn1nc(C)cc1C(=O)/N=c1\sc2cc(C(N)=O)cc(OC)c2n1C/C=C/Cn1c(NC(=O)c2ncnn2C(C)C)nc2cc(C(N)=O)cc(OCCCO)c21 [compound 71]
> 6.00 | CCn1nc(C)cc1C(=O)/N=c1\sc2cc(C(N)=O)cnc2n1C/C=C/Cn1c(NC(=O)c2cc(C)nn2CC)nc2cc(C(N)=O)cc(OCCCO)c21 [compound 110]
> 6.00 | CCn1nc(C)cc1C(=O)Nc1nc2cc(N)cnc2n1C/C=C/Cn1c(NC(=O)c2cc(C)nn2CC)nc2cc(C(N)=O)cc(OC)c21 [Compound 134]
> 6.00 | CCn1nc(C)cc1C(=O)Nc1nc2cc(C(N)=O)cnc2n1C/C=C/Cn1c(NC(=O)c2cc(C)nn2CC)nc2cc(C(N)=O)cc(Br)c21 [compound 89]
4.30 to 6.00 | CCc1nc(C)oc1C(=O)Nc1nc2cc(NC(C)=O)cc(OC)c2n1C/C=C/Cn1c(NC(=O)c2oc(C)nc2CC)nc2cc(C(N)=O)cc(OCCCO)c21 [Compound 131]
> 6.00 | CCc1nc(C)oc1C(=O)Nc1nc2cc(C(N)=O)cc(OC)c2n1C/C=C/Cn1c(NC(=O)c2sc(C)nc2CC)nc2cc(C(N)=O)cc(OCCCO)c21 [compound 40]
4.30 to 6.00 | COc1cc(C(N)=O)cc2nc(NC(=O)c3cc(C)no3)n(C/C=C/Cn3c(NC(=O)c4cc(C)no4)nc4cc(C(N)=O)cc(OCCCO)c43)c12 [compound 12]
≤ 4.30 | COc1cc(C(N)=O)cc2nc(NC(=O)c3cc4ncccc4o3)n(C/C=C/Cn3c(NC(=O)c4cc5ncccc5o4)nc4cc(C(N)=O)cc(OCCCO)c43)c12 [compound 14]
4.30 to 6.00 | CCn1nc(C)cc1C(=O)Nc1nc2cc(CN(C)C)cnc2n1C/C=C/Cn1c(NC(=O)c2cc(C)nn2CC)nc2cc(C(N)=O)cc(OC)c21 [Compound 132]
